Results: patent US20250074892A1, “CARBONYL BRIDGED HETEROCYCLIC COMPOUND, AND COMPOSITION AND APPLICATION THEREOF” (BEIJING SCITECH-MQ PHARMACEUTICALS LIMITED, priority 2022, published 2025)
pIC50: −log10 of the molar value.

Legend:
HT29 cells = assay: Inhibition of cell necrosis (CCK8 method), HT29 cells; type: cell-based, human; details: for pIC50: HT29, Human TNF-α/AT-406/Z-VAD-FMK, 16 hours, CCK8
Experimental: (§1) In this assay example 2, under the condition of inducing programmed cell necrosis of HT29 and L929 cell lines, different concentrations of the test compounds were added to test the IC50 of the rescue effect of the test compounds on the programmed necrosis.
(§2) • Compounds: dissolved in DMSO to make a 10 mM solution; • TNF-α: initial concentration of 100 µg/mL; • Z-VAD-FMK: dissolved in DMSO to make a 10 mM solution; • AT-406: dissolved in DMSO to make a 10 mM solution. • Cell lines: HT29 cells were cultured in McCoy's 5A medium containing 10% fetal bovine serum, 100 U/mL penicillin, and 100 µg/mL streptomycin, and L929 cells were cultured in MEM medium containing 10% horse serum, 100 U/mL penicillin, and 100 µg/mL streptomycin.
(§3) 1. The test compound was dissolved in DMSO to form a stock solution, and a gradient dilution was performed; the solution was then diluted with the corresponding culture medium to obtain a solution with 10 times the working concentration.
(§4) 2. The cells in the logarithmic growth phase were diluted with culture medium to a specific cell concentration. 80 µL of the cell suspension was added to a 96-well plate, so that the cell densities of HT29 and L929 were 1.2*10^4 cells/well and 2.0*10^4 cells/well, respectively. The plate was cultured in a 37° C., 5% carbon dioxide incubator overnight.
(§5) 3. […] of the compound solution was added to each well of the 96-well plate inoculated with cells. The compounds to be tested were serially diluted 4-fold to obtain 9 concentrations in duplicate, starting from a maximum concentration of 10 μM. At the same time, a control group without compound addition was set up.
(§6) 4. After the cells were cultured for another 30 minutes, 10 μL of the inducer mixture was added to each well. The final concentrations of Human TNF-α, AT-406 and Z-VAD-FMK in HT29 cells were 20 ng/mL, […] and 20 μM, respectively; and the final concentrations of Murine TNF-α and Z-VAD-FMK in L929 cells were 20 ng/mL and 25 μM, respectively.
(§7) 5. The 96-well plate in which compounds and inducer were added was placed in a 37° C., 5% carbon dioxide incubator for further culture, wherein HT29 cells were cultured for 16 hours and L929 cells were cultured for 4-8 hours. Cell viability was detected by CCK8. GraphPad Prism software was used to prepare a dose-effect curve and IC50 was calculated.

L929 cells = assay: Inhibition of cell necrosis (CCK8 method), L929 cells; type: cell-based, mouse; details: for pIC50: 4-8 hours, CCK8
Experimental: as §1, §2, §3, §4, §5, §6, §7

[1] = Mus musculus, L929, L929, Murine TNF-α/Z-VAD-FMK

SMILES	pIC50 (HT29 cells; Homo sapiens, HT-29, 16 h)	pIC50 (L929 cells; [1])	pIC50 (HT29 cells)	pIC50 (L929 cells; L929, Murine TNF-α/Z-VAD-FMK)	inhibitory activity against human HT29 cells (HT29 cells; HT29 necrosis)	inhibitory activity against mouse L929 cells (L929 cells; L929 necrosis)
Cc1ccc(OCCC2CCOCC2)cc1-c1ccnc(N2CCC(C(=O)N3N=CCC3c3cc(F)cc(F)c3)CC2)c1 (stereo not shown) [Example 11, (5-(3,5-difluorophenyl)-4,5-dihydro-1H-pyrazol-1-yl)(1-(4-(2-methyl-5-(2-(tetrahydro-2H-pyran-4-yl)ethoxy)phenyl)pyridin-2-yl)piperidin-4-yl)methanone]	7.30 to 8.00	7.00 to 7.30				
CC(C)(O)COc1ccc(F)c(-c2ccnc(N3CCC(C(=O)N4N=CCC4c4cc(F)cc(F)c4)CC3)c2)c1 (stereo not shown) [Example 47, (5-(3,5-difluorophenyl)-4,5-dihydro-1H-pyrazol-1-yl-5-deuterium)(1-(4-(2-fluoro-5-(2-hydroxy-2-methylpropoxy)phenyl)pyridin-2-yl)piperidin-4-yl)methanone]			7.30 to 8.00	7.30 to 8.00		
COCCCCOc1cccc(-c2ccnc(N3CCC(C(=O)N4N=CCC4c4cc(F)cc(F)c4)CC3)c2)c1 (stereo not shown) [Example 13, (5-(3,5-difluorophenyl)-4,5-dihydro-1H-pyrazol-1-yl)(1-(4-(3-(4-methoxybutoxy)phenyl)pyridin-2-yl)piperidin-4-yl)methanone]	7.30 to 8.00	7.00 to 7.30				
O=C(C1CCN(c2nccc(-c3ccccc3)n2)CC1)N1N=CCC1c1ccccc1 (stereo not shown) [compound 2, reference compound]	5.40 to 6.40	< 5.40			significantly inferior to those of the compounds of the present application	almost no inhibitory activities
COCCOc1ccc(Cl)c(-c2ccnc(N3CCC(C(=O)N4N=CCC4c4cc(F)cc(F)c4)CC3)c2)c1 (stereo not shown) [Example 16, (1-(4-(2-chloro-5-(2-methoxyethoxy)phenyl)pyridin-2-yl)piperidin-4-yl)(5-(3,5-difluorophenyl)-4,5-dihydro-1H-pyrazol-1-yl)methanone]	7.30 to 8.00	7.00 to 7.30				
O=C(C1CCN(c2cc(-c3cc(OCC4(O)CCC4)ccc3F)ccn2)CC1)N1N=CCC1c1cc(F)cc(F)c1 (stereo not shown) [Example 46, (5-(3,5-difluorophenyl)-4,5-dihydro-1H-pyrazol-1-yl)(1-(4-(2-fluoro-5-((1-hydroxycyclobutyl)methoxy)phenyl)pyridin-2-yl)piperidin-4-yl)methanone]	≥ 8.00	7.30 to 8.00				
O=C(C1CCN(c2cc(-c3cccc(OCCCCO)c3)ccn2)CC1)N1N=CCC1c1cc(F)cc(F)c1 (stereo not shown) [Example 7, (5-(3,5-difluorophenyl)-4,5-dihydro-1H-pyrazol-1-yl)(1-(4-(3-(4-hydroxybutoxy)phenyl)pyridin-2-yl)piperidin-4-yl)methanone]	7.30 to 8.00	7.30 to 8.00				
COCCOc1ccc(C)c(-c2ccnc(N3CCC(C(=O)N4N=CCC4c4cc(F)cc(F)c4)CC3)c2)c1 (stereo not shown) [Example 4, (5-(3,5-difluorophenyl)-4,5-dihydro-1H-pyrazol-1-yl)(1-(4-(5-(2-methoxyethoxy)-2-methylphenyl)pyridin-2-yl)piperidin-4-yl)methanone]	7.30 to 8.00	7.30 to 8.00				
Cc1ccc(OC2CCOCC2)cc1-c1ccnc(N2CCC(C(=O)N3N=CCC3c3cc(F)cc(F)c3)CC2)c1 (stereo not shown) [Example 6, (5-(3,5-difluorophenyl)-4,5-dihydro-1H-pyrazol-1-yl)(1-(4-(2-methyl-5-((tetrahydro-2H-pyran-4-yl)oxy)phenyl)pyridin-2-yl)piperidin-4-yl)methanone]	7.30 to 8.00	7.00 to 7.30				
CC(C)(O)COc1ccc(F)c(-c2ccnc(N3CCC(C(=O)N4N=CCC4c4cc(F)cc(F)c4)CC3)c2)c1 (racemic) [Example 23, (5-(3,5-difluorophenyl)-4,5-dihydro-1H-pyrazol-1-yl)(1-(4-(2-fluoro-5-(2-hydroxy-2-methylpropoxy)phenyl)pyridin-2-yl)piperidin-4-yl)methanone]	≥ 8.00	≥ 8.00				
